Measurements reported in ChEMBL document CHEMBL1141017, “Triterpene based compounds with potent anti-maturation activity against HIV-1” (Bioorg Med Chem Lett, 2008).

Assays:
[1] = Metabolic stability in Sprague-Dawley rat liver microsomes assessed as compound remaining after 40 mins; format: ADME, Microsome; settings: read-out: Stability
[2] = Metabolic stability in human liver microsomes assessed as compound remaining after 40 mins; format: ADME, Microsome; settings: read-out: Stability
[3] = Therapeutic index, ratio of TC50 for human MT4 cells to IC50 for HIV1 3B; format: cell-based
[4] = tested on: Human immunodeficiency virus 1; assay: Antiviral activity against HIV1 NL4-3 infected in human MT4 cells assessed as cytoprotection against virus-induced cytopathic effect after 4 days by cell viability assay; format: functional, organism-based; settings: Human immunodeficiency virus 1, NL4-3, MT4, 96 h
[5] = Therapeutic index, ratio of TC50 for human MT4 cells to EC50 for HIV1 NL43; format: cell-based
[6] = Cytotoxicity against human MT4 cells after 4 days by cell viability assay; format: cell-based; settings: read-out: TC50
[7] = tested on: Human immunodeficiency virus 1; assay: Antiviral activity against HIV1 3B replication in human PBMC assessed as reverse transcriptase activity after 7 days; format: functional, organism-based; settings: Human immunodeficiency virus 1, 3B, 168 h
[8] = Cytotoxicity against human PBMC by cell viability assay; format: cell-based; settings: read-out: TC50 (the source's name)

Structure (SMILES): C=C(C)[C@@H]1CC[C@]2(C(=O)NCc3ccc(C(=O)O)cc3)CC[C@]3(C)[C@H](CC[C@@H]4[C@@]5(C)CC[C@H](OC(=O)CC(C)(C)C(=O)O)C(C)(C)[C@@H]5CC[C@]43C)[C@@H]12
- remaining at 40 min [1]: 10%
- remaining at 40 min [2]: 10%
- selectivity ratio [3]: > 400
- EC50 [4]: 0.165 µM
- selectivity ratio [5]: > 400
- CC50 at 96 h [6]: 8.9 µM

Structure (SMILES): C=C(C)[C@@H]1CC[C@]2(C(=O)NCCCc3ccc(OC)cc3)CC[C@]3(C)[C@H](CC[C@@H]4[C@@]5(C)CC[C@H](OC(=O)CC(C)(C)C(=O)O)C(C)(C)[C@@H]5CC[C@]43C)[C@@H]12
- EC50 [4]: 0.08 µM
- CC50 at 96 h [6]: 10 µM

Structure (SMILES): C=C(C)[C@@H]1CC[C@]2(C(=O)NCc3ccc4c(c3)OCO4)CC[C@]3(C)[C@H](CC[C@@H]4[C@@]5(C)CC[C@H](OC(=O)CC(C)(C)C(=O)O)C(C)(C)[C@@H]5CC[C@]43C)[C@@H]12
- remaining at 40 min [1]: 10%
- remaining at 40 min [2]: 10%
- selectivity ratio [3]: > 400
- EC50 [4]: 0.023 µM
- IC50 [7]: 0.009 µM
- selectivity ratio [5]: > 400
- CC50 at 96 h [6]: > 10 µM
- CC50 [8]: > 10 µM

Structure (SMILES): C=C(C)[C@@H]1CC[C@]2(C(=O)NCc3ncccc3C(=O)O)CC[C@]3(C)[C@H](CC[C@@H]4[C@@]5(C)CC[C@H](OC(=O)CC(C)(C)C(=O)O)C(C)(C)[C@@H]5CC[C@]43C)[C@@H]12
- EC50 [4]: 0.129 µM
- CC50 at 96 h [6]: > 10 µM

Structure (SMILES): C=C(C)[C@@H]1CC[C@]2(C(=O)NCc3ccc(C(=O)NCCNC(C)=O)cc3)CC[C@]3(C)[C@H](CC[C@@H]4[C@@]5(C)CC[C@H](OC(=O)CC(C)(C)C(=O)O)C(C)(C)[C@@H]5CC[C@]43C)[C@@H]12
- selectivity ratio [3]: > 400
- EC50 [4]: 0.03 µM
- selectivity ratio [5]: > 400
- CC50 at 96 h [6]: 10 µM

Structure (SMILES): C=C(C)[C@@H]1CC[C@]2(C(=O)NCc3ccccc3)CC[C@]3(C)[C@H](CC[C@@H]4[C@@]5(C)CC[C@H](OC(=O)CC(C)(C)C(=O)O)C(C)(C)[C@@H]5CC[C@]43C)[C@@H]12
- remaining at 40 min [1]: 10%
- selectivity ratio [3]: > 400
- EC50 [4]: 0.023 µM
- IC50 [7]: 0.011 µM
- selectivity ratio [5]: > 400
- CC50 at 96 h [6]: > 10 µM
- CC50 [8]: > 10 µM

Structure (SMILES): C=C(C)[C@@H]1CC[C@]2(C(=O)NCc3cccc(C(=O)NCCNC(C)=O)c3)CC[C@]3(C)[C@H](CC[C@@H]4[C@@]5(C)CC[C@H](OC(=O)CC(C)(C)C(=O)O)C(C)(C)[C@@H]5CC[C@]43C)[C@@H]12
- remaining at 40 min [1]: 10%
- selectivity ratio [3]: > 400
- EC50 [4]: 0.01 µM
- selectivity ratio [5]: > 400
- CC50 at 96 h [6]: 10 µM

Structure (SMILES): C=C(C)[C@@H]1CC[C@]2(C(=O)NCc3ccoc3)CC[C@]3(C)[C@H](CC[C@@H]4[C@@]5(C)CC[C@H](OC(=O)CC(C)(C)C(=O)O)C(C)(C)[C@@H]5CC[C@]43C)[C@@H]12
- EC50 [4]: 0.007 µM
- IC50 [7]: 0.007 µM
- CC50 at 96 h [6]: > 10 µM
- CC50 [8]: > 10 µM

Structure (SMILES): C=C(C)[C@@H]1CC[C@]2(C(=O)NCCc3cccc(OC)c3)CC[C@]3(C)[C@H](CC[C@@H]4[C@@]5(C)CC[C@H](OC(=O)CC(C)(C)C(=O)O)C(C)(C)[C@@H]5CC[C@]43C)[C@@H]12
- EC50 [4]: 0.04 µM
- CC50 at 96 h [6]: > 10 µM

Structure (SMILES): C=C(C)[C@@H]1CC[C@]2(C(=O)NCc3cccnc3C(=O)O)CC[C@]3(C)[C@H](CC[C@@H]4[C@@]5(C)CC[C@H](OC(=O)CC(C)(C)C(=O)O)C(C)(C)[C@@H]5CC[C@]43C)[C@@H]12
- EC50 [4]: 0.024 µM
- IC50 [7]: 0.03 µM
- CC50 at 96 h [6]: > 10 µM
- CC50 [8]: > 10 µM

Structure (SMILES): C=C(C)[C@@H]1CC[C@]2(C(=O)N[C@H]3CCc4ccccc43)CC[C@]3(C)[C@H](CC[C@@H]4[C@@]5(C)CC[C@H](OC(=O)CC(C)(C)C(=O)O)C(C)(C)[C@@H]5CC[C@]43C)[C@@H]12
- EC50 [4]: 0.2 µM
- CC50 at 96 h [6]: > 10 µM

Structure (SMILES): C=C(C)[C@@H]1CC[C@]2(C(=O)NCCCc3ccc(OC)c(OC)c3)CC[C@]3(C)[C@H](CC[C@@H]4[C@@]5(C)CC[C@H](OC(=O)CC(C)(C)C(=O)O)C(C)(C)[C@@H]5CC[C@]43C)[C@@H]12
- EC50 [4]: 0.02 µM
- CC50 at 96 h [6]: 10 µM

Structure (SMILES): C=C(C)[C@@H]1CC[C@]2(C(=O)NCc3nc4ccccc4s3)CC[C@]3(C)[C@H](CC[C@@H]4[C@@]5(C)CC[C@H](OC(=O)CC(C)(C)C(=O)O)C(C)(C)[C@@H]5CC[C@]43C)[C@@H]12
- EC50 [4]: 0.033 µM
- IC50 [7]: 0.003 µM
- CC50 at 96 h [6]: 6.8 µM
- CC50 [8]: > 10 µM

Structure (SMILES): C=C(C)[C@@H]1CC[C@]2(C(=O)N[C@H]3CCCc4ccccc43)CC[C@]3(C)[C@H](CC[C@@H]4[C@@]5(C)CC[C@H](OC(=O)CC(C)(C)C(=O)O)C(C)(C)[C@@H]5CC[C@]43C)[C@@H]12
- EC50 [4]: 0.18 µM
- CC50 at 96 h [6]: > 10 µM

Structure (SMILES): C=C(C)[C@@H]1CC[C@]2(C(=O)NCc3nc4ccccc4[nH]3)CC[C@]3(C)[C@H](CC[C@@H]4[C@@]5(C)CC[C@H](OC(=O)CC(C)(C)C(=O)O)C(C)(C)[C@@H]5CC[C@]43C)[C@@H]12
- EC50 [4]: 0.005 µM
- IC50 [7]: 0.001 µM
- CC50 at 96 h [6]: 8.6 µM
- CC50 [8]: > 10 µM

Structure (SMILES): C=C(C)[C@@H]1CC[C@]2(C(=O)NCCc3ccc(C(=O)O)cc3)CC[C@]3(C)[C@H](CC[C@@H]4[C@@]5(C)CC[C@H](OC(=O)CC(C)(C)C(=O)O)C(C)(C)[C@@H]5CC[C@]43C)[C@@H]12
- EC50 [4]: 1 µM
- CC50 at 96 h [6]: 1 µM

Structure (SMILES): C=C(C)[C@@H]1CC[C@]2(C(=O)NCc3cccc(C(=O)O)c3)CC[C@]3(C)[C@H](CC[C@@H]4[C@@]5(C)CC[C@H](OC(=O)CC(C)(C)C(=O)O)C(C)(C)[C@@H]5CC[C@]43C)[C@@H]12
- remaining at 40 min [1]: 10%
- remaining at 40 min [2]: 10%
- selectivity ratio [3]: > 400
- EC50 [4]: 0.48 µM
- selectivity ratio [5]: > 400
- CC50 at 96 h [6]: 7.6 µM

Structure (SMILES): C=C(C)[C@@H]1CC[C@]2(C(=O)NCc3ccc(C(=O)O)cn3)CC[C@]3(C)[C@H](CC[C@@H]4[C@@]5(C)CC[C@H](OC(=O)CC(C)(C)C(=O)O)C(C)(C)[C@@H]5CC[C@]43C)[C@@H]12
- EC50 [4]: 1.7 µM
- CC50 at 96 h [6]: > 10 µM

Structure (SMILES): C=C(C)[C@@H]1CC[C@]2(C(=O)NCc3ccc4ccccc4n3)CC[C@]3(C)[C@H](CC[C@@H]4[C@@]5(C)CC[C@H](OC(=O)CC(C)(C)C(=O)O)C(C)(C)[C@@H]5CC[C@]43C)[C@@H]12
- EC50 [4]: 0.026 µM
- CC50 at 96 h [6]: > 10 µM

Structure (SMILES): C=C(C)[C@@H]1CC[C@]2(C(=O)N[C@@H](Cc3ccc(OC)cc3)C(=O)O)CC[C@]3(C)[C@H](CC[C@@H]4[C@@]5(C)CC[C@H](OC(=O)CC(C)(C)C(=O)O)C(C)(C)[C@@H]5CC[C@]43C)[C@@H]12
- EC50 [4]: 0.009 µM
- CC50 at 96 h [6]: 5.6 µM

Structure (SMILES): C=C(C)[C@@H]1CC[C@]2(C(=O)NCc3ccc4cccc(O)c4n3)CC[C@]3(C)[C@H](CC[C@@H]4[C@@]5(C)CC[C@H](OC(=O)CC(C)(C)C(=O)O)C(C)(C)[C@@H]5CC[C@]43C)[C@@H]12
- remaining at 40 min [1]: > 40%
- remaining at 40 min [2]: > 40%
- EC50 [4]: 0.003 µM
- IC50 [7]: 0.004 µM
- CC50 at 96 h [6]: > 10 µM
- CC50 [8]: > 10 µM

Structure (SMILES): C=C(C)[C@@H]1CC[C@]2(C(=O)N3Cc4ccccc4C3)CC[C@]3(C)[C@H](CC[C@@H]4[C@@]5(C)CC[C@H](OC(=O)CC(C)(C)C(=O)O)C(C)(C)[C@@H]5CC[C@]43C)[C@@H]12
- EC50 [4]: 0.07 µM
- CC50 at 96 h [6]: > 10 µM

Structure (SMILES): C=C(C)[C@@H]1CC[C@]2(C(=O)NCc3ccccc3-c3ccccc3)CC[C@]3(C)[C@H](CC[C@@H]4[C@@]5(C)CC[C@H](OC(=O)CC(C)(C)C(=O)O)C(C)(C)[C@@H]5CC[C@]43C)[C@@H]12
- selectivity ratio [3]: > 400
- EC50 [4]: 0.29 µM
- selectivity ratio [5]: > 400
- CC50 at 96 h [6]: > 10 µM

Structure (SMILES): C=C(C)[C@@H]1CC[C@]2(C(=O)NCc3ccc(-c4ccccc4)cc3)CC[C@]3(C)[C@H](CC[C@@H]4[C@@]5(C)CC[C@H](OC(=O)CC(C)(C)C(=O)O)C(C)(C)[C@@H]5CC[C@]43C)[C@@H]12
- remaining at 40 min [2]: 10%
- selectivity ratio [3]: > 400
- EC50 [4]: 0.267 µM
- selectivity ratio [5]: > 400
- CC50 at 96 h [6]: > 10 µM

Structure (SMILES): C=C(C)[C@@H]1CC[C@]2(C(=O)NCc3ccc(N(C)C)cc3)CC[C@]3(C)[C@H](CC[C@@H]4[C@@]5(C)CC[C@H](OC(=O)CC(C)(C)C(=O)O)C(C)(C)[C@@H]5CC[C@]43C)[C@@H]12
- remaining at 40 min [1]: 10%
- remaining at 40 min [2]: 10%
- selectivity ratio [3]: > 400
- EC50 [4]: 0.03 µM
- selectivity ratio [5]: > 400
- CC50 at 96 h [6]: 1 µM

Structure (SMILES): C=C(C)[C@@H]1CC[C@]2(C(=O)NCc3ccccc3C)CC[C@]3(C)[C@H](CC[C@@H]4[C@@]5(C)CC[C@H](OC(=O)CC(C)(C)C(=O)O)C(C)(C)[C@@H]5CC[C@]43C)[C@@H]12
- remaining at 40 min [2]: 10%
- selectivity ratio [3]: > 400
- EC50 [4]: 0.085 µM
- selectivity ratio [5]: > 400
- CC50 at 96 h [6]: > 10 µM

Structure (SMILES): C=C(C)[C@@H]1CC[C@]2(C(=O)NCc3ccccc3C(=O)NCCNC(C)=O)CC[C@]3(C)[C@H](CC[C@@H]4[C@@]5(C)CC[C@H](OC(=O)CC(C)(C)C(=O)O)C(C)(C)[C@@H]5CC[C@]43C)[C@@H]12
- selectivity ratio [3]: > 400
- EC50 [4]: 0.005 µM
- selectivity ratio [5]: > 400
- CC50 at 96 h [6]: 9.3 µM

Structure (SMILES): C=C(C)[C@@H]1CC[C@]2(C(=O)N[C@H](C(=O)O)c3ccc(OC)cc3)CC[C@]3(C)[C@H](CC[C@@H]4[C@@]5(C)CC[C@H](OC(=O)CC(C)(C)C(=O)O)C(C)(C)[C@@H]5CC[C@]43C)[C@@H]12
- EC50 [4]: 0.04 µM
- CC50 at 96 h [6]: 6.8 µM
